Results: patent US7858788B2, “Bicyclic carbamoylpyridone derivative having HIV integrase inhibitory activity” (Shionogi & Co., Ltd., priority 2005, dated 2010)

Molecular target: HIV integrase (Human immunodeficiency virus type 1 group M subtype B, UniProt P04585)
Assay: HIV integrase inhibitory activity assay (immunoplate, substrate DNA / target DNA, OD405)
Type: biochemical
Settings: read-out: Integrase inhibitory activity (IC50, ng/ml) (converted)
Description: The HIV integrase inhibitory activity was investigated based on the following assay method.
(1) Preparation of DNA Solution
By the same method as that described in Experimental Example 1 of WO 2004/024693, a substrate DNA solution (2 pmol/ml) and a target DNA solution (5 pmol/ml) were prepared. […] Each sequence of a substrate DNA and a target DNA is as described in the same Experimental Example.
(2) Measurement of Inhibition Rate (IC50 Value)
Streptavidin (manufactured by Vector Laboratories) was dissolved in a 0.1M carbonate buffer solution (composition: 90 mM Na2CO3, 10 mM NaHCO3) to a concentration of 40 μg/ml. Each […] of this solution was added to a well of an immunoplate (manufactured by NUNC), and this is allowed to stand at 4° C. overnight to adsorb. Then, each well was washed with a phosphate buffer (composition: 13.7 mM NaCl, 0.27 mM KCl, 0.43 mM Na2HPO4, 0.14 mM KH2PO4) two times, and […] of a phosphate buffer containing 1% skim milk was added to block it for 30 minutes. Further, each well was washed with a phosphate buffer two times, […] of a substrate DNA solution (2 pmol/ml) was added to adsorb at room temperature for 30 minutes while shaking, and this was washed with a phosphate buffer two times and, then, distilled water once.
Then, to each well prepared as described above were added 12 ml of a buffer (composition: 150 mM MOPS (pH7.2), 75 mM MnCl2, 50 mM 2-mercaptoethanol, 25% glycerol, 500 μg/ml bovine serum albumin-fraction V), and 51 ml of a reaction solution prepared from […] of distilled water. Then, 9 ml of an integrase solution (30 pmol) was added, and the mixture was mixed well. To a well as a negative control (NC) was added 9 ml of a diluting solution (composition: 20 mM MOPS (pH7.2), 400 mM potassium glutamete, 1 mM EDTA, 0.1% NP-40, 20% glycerol, 1 mM DTT, 4 M urea), and this was mixed well using a plate mixer. […]
C abs.; absorbance of well of compound
NC abs.: absorbance of NC
PC abs.: absorbance of PC

Row | SMILES | IC50 [nM]
1 | O=C(NCc1ccc(F)cc1)c1cn2ccn(Cc3ccc(F)cc3)c(=O)c2c(O)c1=O [Example A-30, 2-(4-Fluorobenzyl)-9-hydroxy-1,8-dioxo-1,8-dihydro-2H-pyrid[1,2-a]pyrazine-7-carboxylic acid 4-fluoro-benzylamide] | 2.29
2 | COCCN1C(=O)c2c(O)c(=O)c(C(=O)NCc3ccc(F)cc3COC)cn2CC1O (stereo not drawn) [Example E-1, 3,9-Dihydroxy-2-(2-methoxy-ethyl)-1,8-dioxo-1,3,4,8-tetrahydro-2H-pyrid[1,2-a]pyrazine-7-carboxylic acid 4-fluoro-2-methoxymethyl-benzylamide] | 11.1
3 | COCCN1CC(O)n2cc(C(=O)NCc3ccc(F)cc3)c(=O)c(O)c2C1=O [Example D-41, 4,9-Dihydroxy-2-(2-methoxy-ethyl)-1,8-dioxo-1,3,4,8-tetrahydro-2H-pyrid[1,2-a]pyrazine-7-carboxylic acid 4-fluoro-benzylamide] | 7.89
